Experiments:
P388 [1] = test: Minimum effective dose was determined on P388 leukemia cells in mice; assay type: functional, Mus musculus; settings: for minimal effective dose: Mus musculus, P388, read-out: MED
[2] = Partition coefficient (logP); assay type: physicochemical; settings: octanol/water
Mus musculus = organism: Mus musculus; test: log(1/C) was estimated in mice; assay type: organism-based; settings: in vivo
P388 [3] = test: Maximal effect of the given optimal dose of 3.2 mg/kg against P388 leukemia cells in mice; assay type: functional, Mus musculus
P388 [4] = test: Maximal effect of the given optimal dose of 0.8 mg/kg against P388 leukemia cells in mice; assay type: functional, Mus musculus
P388 [5] = test: Maximal effect of the given optimal dose of 1.6 mg/kg against P388 leukemia cells in mice; assay type: functional, Mus musculus
P388 [6] = test: Maximal effect of the given optimal dose of 0.4 mg/kg against P388 leukemia cells in mice; assay type: functional, Mus musculus
P388 [7] = test: Maximal effect of the given optimal dose of 12.8 mg/kg against P388 leukemia cells in mice; assay type: functional, Mus musculus
P388 [8] = test: Maximal effect of the given optimal dose of 6.4 mg/kg against P388 leukemia cells in mice; assay type: functional, Mus musculus
B16 [9] = test: Maximal effect of the given optimal dose of 0.4 mg/kg against B16 melanoma cells in mice; assay type: organism-based; design: dose 0.4 mg/kg; settings: mouse, in vivo
P388 [10] = test: Maximal effect of the given optimal dose of 0.2 mg/kg against P388 leukemia cells in mice; assay type: functional, Mus musculus
B16 [11] = test: Minimum effective dose was determined on B16 melanoma cells in mice; assay type: functional; settings: Mus musculus, read-out: MED
B16 [12] = test: Maximal effect of the given optimal dose of 1.2 mg/kg against B16 melanoma in mice; assay type: functional, Mus musculus
B16 [13] = test: Maximal effect of the given optimal dose of 0.8 mg/kg against B16 melanoma cells in mice; assay type: functional, Mus musculus
B16 [14] = test: Maximal effect of the given optimal dose of 1.6 mg/kg against B16 melanoma in mice; assay type: functional, Mus musculus
B16 [15] = test: Maximal effect of the given optimal dose of 0.4 mg/kg against B16 melanoma in mice; assay type: functional, Mus musculus
B16 [16] = test: Maximal effect of the given optimal dose of 0.8 mg/kg against B16 melanoma in mice; assay type: functional, Mus musculus
B16 [17] = test: Maximal effect of the given optimal dose of 0.3 mg/kg against B16 melanoma in mice; assay type: functional, Mus musculus

Structure (SMILES) | MED (P388 [1]) [M/kg] | minimal effective dose (P388 [1]) [mg/kg] | logP [2] | Log 1/C (Mus musculus) | other results
CO[C@@]12C(COC(N)=O)C3=C(C(=O)C(C)=C(OCc4cccs4)C3=O)N1CC1NC12 (some centres not stated) | 7.13e-06 | 3.2 | 2.07 | 5.15 | T/C (P388 [3]): 159%
COCC(C)OC1=C(C)C(=O)C2=C(C1=O)C(COC(N)=O)[C@@]1(OC)C3NC3CN21 (some centres not stated) | 4.81e-07 | 0.2 | 0.79 | 6.21 | T/C (P388 [4]): 206%
CCOCCOC1=C(C)C(=O)C2=C(C1=O)C(COC(N)=O)[C@@]1(OC)C3NC3CN21 (some centres not stated) | 4.65e-07 | 0.2 | 0.79 | 7.33 | T/C (P388 [5]): 133%
CO[C@@]12C(COC(N)=O)C3=C(C(=O)C(C)=C(OCC4OCCO4)C3=O)N1CC1NC12 (some centres not stated) | 5.88e-07 | < 0.05 | -0.18 | 7.23 | T/C (P388 [6]): 267%
CO[C@@]12C(COC(N)=O)C3=C(C(=O)C(C)=C(OCCN4CCCCC4)C3=O)N1CC1NC12 (some centres not stated) | 8.71e-07 | 0.4 | 1.96 | 6.06 | T/C (P388 [7]): 191%
CO[C@@]12C(COC(N)=O)C3=C(C(=O)C(C)=C(OCCSC)C3=O)N1CC1NC12 (some centres not stated) | 9.57e-07 | 0.4 | 1.37 | 6.02 | T/C (P388 [5]): 165%
CO[C@@]12C(COC(N)=O)C3=C(C(=O)C(C)=C(OCCN4CCCC4)C3=O)N1CC1NC12 (some centres not stated) | 1.13e-07 | < 0.1 | 1.46 | 6.94 | T/C (P388 [8]): 217%; T/C (B16 [9]): 107%
CO[C@@]12C(COC(N)=O)C3=C(C(=O)C(C)=C(OCCCN4CCN(C)CC4)C3=O)N1CC1NC12 (some centres not stated) | 1.265e-05 | 6.4 | 1.16 | 4.9 | T/C (P388 [7]): >167%
CO[C@@]12C(COC(N)=O)C3=C(C(=O)C(C)=C(OCCN4CCSCC4)C3=O)N1CC1NC12 (some centres not stated) | 2.06e-07 | 0.1 | 2.07 | 6.67 | T/C (P388 [8]): >172%
CCN1CCCC1CCOC1=C(C)C(=O)C2=C(C1=O)C(COC(N)=O)[C@@]1(OC)C3NC3CN21 (some centres not stated) | 1.09e-07 | < 0.1 | 1.96 | 6.96 | T/C (P388 [7]): 211%
CO[C@@]12C(COC(N)=O)C3=C(C(=O)C(C)=C(OCCSCc4ccccc4)C3=O)N1CC1NC12 (some centres not stated) | 4.25e-07 | 0.2 | 3.58 | 6.37 | T/C (P388 [8]): 156%
CO[C@@]12C(COC(N)=O)C3=C(C(=O)C(C)=C(OC/C=C/CO)C3=O)N1CC1NC12 (some centres not stated) | 4.83e-07 | 0.2 | 0.46 | 6.21 | T/C (P388 [3]): 150%
CO[C@@]12C(COC(N)=O)C3=C(C(=O)C(C)=C(OCCCN(CCO)CCO)C3=O)N1CC1NC12 (some centres not stated) |  |  | -0.28 |  | T/C (P388 [10]): 106%
CO[C@@]12C(COC(N)=O)C3=C(C(=O)C(C)=C(OC4CCN(C)CC4)C3=O)N1CC1NC12 (some centres not stated) | 7.1e-06 | 3.2 | 1.46 | 5.15 | T/C (P388 [3]): 155%
CO[C@@]12C(COC(N)=O)C3=C(C(=O)C(C)=C(OC4COCOC4)C3=O)N1CC1NC12 (some centres not stated) | 1.18e-07 | < 0.1 | 0.31 | 6.93 | minimal effective dose (B16 [11]): < 0.3 mg/kg; T/C (B16 [12]): 222%; T/C (P388 [5]): 210%
CO[C@@]12C(COC(N)=O)C3=C(C(=O)C(C)=C(OCc4ccccn4)C3=O)N1CC1NC12 (some centres not stated) | 9.2e-07 | 0.4 | 0.91 | 6.04 | T/C (P388 [4]): 164%
CCSCC(O)COC1=C(C)C(=O)C2=C(C1=O)C(COC(N)=O)[C@@]1(OC)C3NC3CN21 (some centres not stated) | 4.33e-07 | 0.2 | 1.25 | 6.37 | T/C (P388 [3]): >322%

Structure (SMILES) | MED (P388 [1]) [M/kg] | minimal effective dose (P388 [1]) [mg/kg] | logP [2] | Log 1/C (Mus musculus) | other results
CO[C@@]12C(COC(N)=O)C3=C(C(=O)C(C)=C(OCCSCCSCCO)C3=O)N1CC1NC12 (some centres not stated) | 1.603e-06 | 0.8 | 1.86 | 5.84 | T/C (P388 [4]): 140%
CO[C@@]12C(COC(N)=O)C3=C(C(=O)C(C)=C(OCCCSCCCO)C3=O)N1CC1NC12 (some centres not stated) | 1.02e-07 | < 0.1 | 3.49 | 6.98 | T/C (P388 [8]): 153%
CO[C@@]12C(COC(N)=O)C3=C(C(=O)C(C)=C(OC4CC4)C3=O)N1CC1NC12 (some centres not stated) | 1.3e-07 | 0.05 | 1.17 | 6.89 | minimal effective dose (B16 [11]): 0.8 mg/kg; T/C (B16 [13]): 138%; T/C (P388 [3]): 172%
CO[C@@]12C(COC(N)=O)C3=C(C(=O)C(C)=C(OCC4COCO4)C3=O)N1CC1NC12 (some centres not stated) | 4.75e-07 | 0.2 | 0.31 | 6.32 | T/C (P388 [6]): 140%
CO[C@@]12C(COC(N)=O)C3=C(C(=O)C(C)=C(OCCNC(C)=O)C3=O)N1CC1NC12 (some centres not stated) | 9.32e-07 | 0.4 | -0.21 | 6.03 | T/C (P388 [7]): 150%
CO[C@@]12C(COC(N)=O)C3=C(C(=O)C(C)=C(OC4CCOCC4)C3=O)N1CC1NC12 (some centres not stated) | 1.17e-07 | < 0.1 | 1.29 | 6.93 | minimal effective dose (B16 [11]): 1.6 mg/kg; T/C (B16 [14]): 135%; T/C (P388 [3]): 212%
CCO[Si](CCCOC1=C(C)C(=O)C2=C(C1=O)C(COC(N)=O)[C@@]1(OC)C3NC3CN21)(OCC)OCC (some centres not stated) | 3.59e-07 | 0.2 |  | 6.44 | T/C (P388 [7]): 167%
CO[C@@]12C(COC(N)=O)C3=C(C(=O)C(C)=C(OCCC4OCCCO4)C3=O)N1CC1NC12 (some centres not stated) |  |  | 0.82 |  | T/C (B16 [15]): 154%; minimal effective dose (B16 [11]): < 0.3 mg/kg; T/C (P388 [10]): 117%
CCOC(=O)CCCOC1=C(C)C(=O)C2=C(C1=O)C(COC(N)=O)[C@@]1(OC)C3NC3CN21 (some centres not stated) | 1.41e-05 | 6.4 | 1.49 | 4.85 | T/C (P388 [7]): 171%
COCC(O)COC1=C(C)C(=O)C2=C(C1=O)C(COC(N)=O)[C@@]1(OC)C3NC3CN21 (some centres not stated) | 1.16e-07 | < 0.1 | -0.59 | 6.94 | minimal effective dose (B16 [11]): 0.2 mg/kg; T/C (P388 [4]): 222%; T/C (B16 [16]): 211%
CO[C@@]12C(COC(N)=O)C3=C(C(=O)C(C)=C(OCCC4CCCN4C)C3=O)N1CC1NC12 (some centres not stated) | 7.033e-06 | 3.2 | 1.46 | 5.21 | T/C (P388 [7]): >156%
CO[C@@]12C(COC(N)=O)C3=C(C(=O)C(C)=C(OCCOCCCl)C3=O)N1CC1NC12 (some centres not stated) | 6.2e-08 | < 0.05 | 1.18 | 7.21 | minimal effective dose (B16 [11]): 0.4 mg/kg; T/C (B16 [13]): 169%; T/C (P388 [3]): 183%
CO[C@@]12C(COC(N)=O)C3=C(C(=O)C(C)=C(OCCSc4ccccc4)C3=O)N1CC1NC12 (some centres not stated) | 6.73e-06 | 3.2 | 3.12 | 5.17 | T/C (P388 [7]): 130%
CO[C@@]12C(COC(N)=O)C3=C(C(=O)C(C)=C(OCCOc4ccccc4)C3=O)N1CC1NC12 (some centres not stated) | 3.516e-06 | 1.6 | 2.39 | 5.45 | T/C (P388 [3]): 130%
CO[C@@]12C(COC(N)=O)C3=C(C(=O)C(C)=C(OCC4CC4)C3=O)N1CC1NC12 (some centres not stated) | 1.028e-06 | 0.4 | 1.67 | 5.97 | T/C (P388 [5]): 144%
COC1=C(C)C(=O)C2=C(C1=O)[C@@H](COC(N)=O)[C@@]1(OC)[C@H]3N[C@H]3CN21 [MITOMYCIN A] | 1.43e-07 | 0.05 |  | 6.84 | T/C (B16 [17]): 177%; minimal effective dose (B16 [11]): 0.05 mg/kg; T/C (P388 [3]): 180%

Reference: ChEMBL document CHEMBL1124431, “Preparation and antitumor activity of additional mitomycin A analogues” (J Med Chem, 1989)
